Measured values reported in patent publication US20160082130A1, “Dosage Forms and Methods for Diagnosing Sympathetic Nervous System Dysfunction” (priority 2014, published 2016).

Experiments:
healthy subjects = test: apraclonidine 0.05% eye drop test in healthy control subjects (digital photographs, Image-J); format: in vivo, human
Description: (§1) Patients with a diagnosis of GBS based on history and clinical exam were recruited for this study. Patients with diabetes were excluded from the study. Patients on medications or eye drops with either sympathetic or parasympathetic action were also excluded from the study. […] All patients had electrophysiological studies done in terms of nerve conduction studies at the time of their diagnosis. Patients on opioid therapy were not excluded. In total, five patients met the criteria for inclusion. Healthy control participants were recruited in outpatient clinics from partners and family members accompanying a person with an appointment. Participants with diabetes, ocular disease, previous ocular surgeries, and on sympathetic or parasympathetic medications or eye drops were also excluded from the study. Digital photographs of the subjects' eyes were obtained prior to the application of apraclonidine. A small pre-measured reference was used at the time of photography to help quantify measurements. Apraclonidine (0.05% drop) was added to the left eye and a follow up photograph was obtained some time (19-52 min) after the application of the drop. The digital photographs were analyzed with Image-J software (Schneider, C. A., et al., Nat. Methods 9:671-675, 2012) to determine pupillary diameter and palpebral fissure heights. Standard deviation of the measurements for error propagation was determined by repeated computer measurement of the pre-measured reference in a digital photograph. Palpebral fissure height was determined by measuring the vertical distance between the eyelids with the measurement going through the centre of each pupil. Pupillary diameter was determined with two measurements (horizontal and vertical) and an average denoted as OS or OD used for each pupil for further calculations. Pupillary response was quantified with the percentage ratio (D2−D1)/D1×100, where D1 and D2 represent the baseline anisocoria (D1=OS−OD) and the drug-induced anisocoria (D2=OS*−OD*) respectively.

[1] = test system: patients with a diagnosis of GBS; test: apraclonidine 0.05% eye drop test in patients with Guillain-Barré syndrome (digital photographs, Image-J); format: in vivo, human
Description: as §1

Compound: Nc1cc(Cl)c(NC2=NCCN2)c(Cl)c1 [apraclonidine, 2,6-dichloro-N-(4,5-dihydro-1H-imidazol-2-yl)benzene-1,4-diamine]
- effect on pupillary diameter (healthy subjects; healthy subjects, 0.05% drop to one eye): no significant effect
- effect on the pupils (healthy subjects; healthy subjects, analysis of digital photographs): either no effect or caused paradoxical miosis of the pupil
- effect on palpebral fissure height (healthy subjects; normal individuals, 0.05% drop to one eye): did not have any significant effect
- amplification of palpebral fissure height difference after application ([1]; GBS patients with only ptosis, computer analysis of digital photographs): 1130% (±80%)
- amplification of anisocoria after administration ([1]; GBS patients with pupillary dysfunction, (D2-D1)/D1x100): 1124% (±324%)
- unmasking of bilateral ptosis ([1]; five GBS patients, 0.05% drop to left eye, photograph 19-52 min after): unmasked bilateral ptosis in all five GBS patients
- unmasking of bilateral Horner's syndrome with dilation of miotic pupil ([1]; five GBS patients, 0.05% drop to one eye): unmasked bilateral Horner's syndrome with dilation of miotic pupil in two of the five patients
- unmasking of reverse ptosis of the lower eyelid ([1]; photographic evidence from the subjects in this study): unmasks a reverse ptosis of the lower eyelid
